Assays:
incision wounds = experiment: Tensile strength of incision wounds (rats); type: in vivo, Sprague-Dawley rats; settings: 0.1% BAC-3; 21 days after wounding; p<0.05 by ANOVA; FIG. 3
Procedure: The wounding of animals was performed according to the Protocol for Animal Use and Care at the University of California-Davis (hereafter UC-Davis). The entire animal protocol required 70 Sprague-Dawley rats: 30 rats for incision wounds and 40 rats for burn wounds. Among them 36 rats were burned over 7% of their skin and 4 rats were burned over 15% of their skin. Incision wounds of whole skin and burn wounds were treated topically with 2 test doses of the pharmaceutical preparation of di-rhamnolipid BAC-3. Each dose contained a). 1%, and 0.1% of active di-rhamnolipid (BAC-3) in eucerin (eucerin=71.5 g Vaselinum album (Producer: D.E.A. Hamburg); 23.8 g Lanolinum (Producer I.O.I. Hamburg); 4.7 g Cholesterin (Producer: Solvay, Wiena, Austria); Water Number: 320); or b). 1%; 0.1% active rhamnolipid (BAC-3) with antiseptic (chlorhexidine hydrochloride-PLIVA-Zagreb). Eucerin with BAC-3 was administrated twice daily during healing. The same experiment had one control group without the treatment, and one control group which was treated with ointment+1% chlorhexidine hydrochloride. […]
Tensile Strength Determination. […] The tensile strength of healthy skin was measured in killed animals from each group.
Effect of BAC-3 on Tensile Strength of Incision Wounds (FIG. 3) with and without chlorhexidine hydrochloride. The tensile strength of incision wounds was measured 21 days after wounding. […]

[1] = system: neonatal human keratinocyte cells; experiment: Caspase detection in neonatal human keratinocyte cells in KGM (serum free) medium; type: cell-based
Procedure: The procedure for caspase detection in neonatal human keratinocyte cells in KGM* (serum free) medium treated With BAC-3 using fluorescence spectroscopy
The same procedure as described for fibroblasts except different growth conditions were used (NHK97-45 passage #3 cell line was used). Neonatal human keratinocytes were without the presence of serum (KGM medium). Prior to treatment with BAC-3, passage #3 cells were grown in KGM medium for 7 days with one medium change (until 80% confluent). For preparing positive apoptosis control, plates were irradiated with UVB light for 66 seconds (792 J/m^2).
Cells, at 80% confluence, were administered BAC-3 in KGM at 50 μg/ml, 10 μg/ml, 1 μg/ml and 0.5 μg/ml concentrations. Medium was replaced every two days over the period of 6 days. On day 3, positive apoptosis control was established by irradiating cells with 792 J/m^2 UVB light and incubating them with 1 μg/ml FAS antibody. BAC-3 treated and control cells were harvested and cell densities were adjusted to 1×10^6 cells per ml with FM. 300 μl cell aliquots were labeled with FAM-VAD-FMK, fluorescent-tagged, irreversible caspase inhibitor. Unlabelled inhibitor was washed away with buffer and 100 μl aliquots were read at 485 nm excitation and 535 nm emission with fluorescence detector. Error bars indicate standard deviations.

[2] = system: neonatal human keratinocyte cells; experiment: Caspase detection in neonatal human keratinocyte cells in GM medium (with serum); type: cell-based
Procedure: The procedure for caspase detection in neonatal human keratinocyte cells in GM* medium (with serum) treated with BAC-3 using fluorescence spectroscopy
The same procedure as described for keratinocyte cells in KGM, but with presence of serum (GM). Passage #3 cells were grown in KGM medium for 7 days with one medium change. Plates were irradiated with UVB light for 66 seconds (792 J/m^2)
Cells, at 80% confluence, were administered BAC-3 in GM at 100 μg/ml, 50 μg/ml, 10 μg/ml and 1 μg/ml concentrations. Medium was replaced every two days over the period of 6 days. On day 3, positive apoptosis control was established by irradiating cells with 792 J/m^2 UVB light and incubating them with 1 μg/ml FAS antibody. BAC-3 treated and control cells were harvested and cell densities were adjusted to 1×10^6 cells per ml with FM. 300 μl cell aliquots were labeled with FAM-VAD-FMK, fluorescent-tagged, irreversible caspase inhibitor. Unlabelled inhibitor was washed away with buffer and 100 μl aliquots were read at 485 nm excitation and 535 nm emission with fluorescence detector. Error bars indicate standard deviations.

venous ulcer = experiment: Open wound healing in a patient with incurable venous ulcer; type: in vivo, human; settings: 1% BAC-3 ointment twice daily during 41 days
Procedure: The BAC-3 rhamnolipid was tested in the case of open wound healing, in a patient suffering around ten years from incurable venous ulcer. On the left leg, the patient had very thick layers of collagen with fibrotic lesions. […] Moreover, after treatment was finished, not only the collagen, but also the fibrotic lesions had disappeared as well. One year after the treatment, the treated skin lesions on the left leg appear normal, and all skin collagen and fibrotic layers had disappeared.

CCCCCCCC(CC(=O)O)OC(=O)CC(CCCCCCC)OC1OC(C)C(O)C(O)C1OC1OC(C)C(O)C(O)C1O [BAC-3, (α-L-rhamnopyranosyl-(1,2)-α-L-rhamnopyranosyl)-3-hyroxydecanoyl-3-hydroxydecanoic acid]
tensile strength of incision wounds vs corresponding vehicle (incision wounds): significantly lower | optimal concentration for inducing apoptosis (caspase activity peak) ([1]; keratinocytes in KGM serum free, 6 days, tested 50, 10, 1 and 0.5 μg/ml): 1 µg/mL | mechanism of cell death at higher concentrations ([1]; keratinocytes in KGM, higher concentrations of BAC-3 (detergent effect)): cell necrosis | optimal concentration for inhibiting apoptosis ([2]; keratinocytes in GM with serum, 6 days, tested 100, 50, 10, 1 and 0.5 μg/ml): 50 µg/mL | effect on apoptosis (caspase enzyme activity) ([2]; keratinocytes in GM, presence of serum): inhibited | collagen and fibrotic lesions after treatment (venous ulcer; after treatment and one year later): disappeared | patient's condition (venous ulcer; one patient, venous ulcer, left leg): significantly improved

Reference: patent US7129218B2, “Use of rhamnolipids in wound healing, treatment and prevention of gum disease and periodontal regeneration” (Paradigm Biomedical, Inc., priority 1999, dated 2006)
